Experiments:
[1] = test system: M2-induced THP-1 macrophages; experiment: Reprogramming of M2-polarized THP-1 macrophages, marker mRNA by qPCR; assay type: cell-based, human
Method: THP-1 cells were seeded into 96-well plates at a density of 60,000 cells/well. Cells were differentiated into unpolarized macrophages by 48 hours incubation with 200 nM PMA followed by 24 hours incubation in fresh RPMI medium. […] Cultures were maintained at 37° C., in a humidified 5% CO2 incubator.
Total RNA was isolated from 1×10^5-2×10^5 macrophages using a Quick-RNA™ MicroPrep kit (Zymo Research, Irvine, CA) according to the manufacturer-recommended protocol. The RNA samples were then reverse-transcribed into cDNA using high-capacity cDNA reverse transcription kits (Applied Biosystems, Foster City, CA; #4368814), qPCR analyses were performed using the iTaq™ Universal SYBR Green SuperMix (Bio-Rad Laboratories GmbH, Hercules, CA; #1725121), iCycler thermocycler, and iCycler iQ 3.0 software (Bio-Rad Laboratories GmbH, Hercules, CA) to track the expression of markers characteristic of macrophage polarization states, IL-6, CXCL10, IFNα, IFN-γ and CD86 were used as markers for an M1 phenotype, while CCL18. CD206, CD163 and Arg1 were employed as markers for the M2 phenotype, IL-1β, PDGFβ, MMP9 and TIMP 3 were measured as indicators of an anti-inflammatory phenotype. IRAK-4 was used as an indicator of TLR7 stimulation. To control for specificity of the amplification products, a melting curve analysis was performed. […] Each sample was analyzed independently in triplicate for each marker.
In both data sets, the cells were harvested for gene analysis by qPCR.
Primarily, human monocytic (THP-1) cells were induced to the M2-like phenotype using the methods and materials previously described. In particular, THP-1 cells were seeded into 96-well plates at a density of 60,000 cells/well. Cells were differentiated into unpolarized macrophages by 48 h incubation with 200 nM PMA followed by 24 hours incubation in fresh RPMI medium. The resulting macrophages were polarized to an M2-like phenotype by incubation with […] IL-4, 20 ng/ml […], and 5 ng/mL IL-6 for 48h. Cultures were maintained at 37° C. in a humidified 5% CO2 incubator.
In addition to the nonconjugated TLR7 agonist, conjugated compounds of the present disclosure were likewise evaluated. Human THP-1 cells were induced to macrophages having the M2-like phenotype per the methods set forth herein (e.g., using 20 ng/mL IL-4, 20 ng/mL IL-13, 5 ng/mL IL-6), then reprogrammed with different nM concentrations of various compounds of the present disclosure for 2 hours; namely, a nonconjugated (free drug) TLR7 agonist compound having formula I and/or II (data shown collectively as Compound 3A), a folate-conjugated TLR7 agonist compound having formula XV (having a releasable linker) (e.g., Compound 3B), a folate-conjugated TLR7 agonist compound having formula XVII (having a non-releasable linker) (e.g., Compound 3C), and a folate-conjugated TLR7 agonist compound having formula XVI (having a non-releasable linker) (e.g., Compound 3D). The cells were subsequently harvested for gene analysis by qPCR and the relative expression of CCL18 (FIG. 14A), CD206 (FIG. 14B), and IL-1β (FIG. 14C) analyzed.

[2] = test system: M2-induced THP-1 macrophages; experiment: as above; assay type: cell-based, human; conditions: 48 hours incubation, FIGS. 3A-3F, compared with nontargeted Compound 1A
[3] = test system: healthy mice
Method: (FIGS. 20A-C) Measurement of plasma IL-6 (FIG. 20A), IFNα (FIG. 20B) and TNFα (FIG. 20C) (n=3). […] The effect of drug concentration on plasma levels of IL-6 (FIG. 20D), IFNα (FIG. 20E), and TNFα (FIG. 20F) was determined at 1.5 hours, 1 hour, or 1 hour after treatment, respectively (n=2) (FIG. 20G).
The effect of drug on plasma levels of IL-6 (FIG. 23C) and TNFα (FIG. 23D) was determined at 1 hour or 1.5 hours after treatment.

[4] = test system: BM-induced mice; experiment: Bleomycin-induced pulmonary fibrosis, markers in bronchoalveolar lavage cells and fluid; assay type: in vivo, C57BL/6 mice
Method: Fresh water and folate-deficient diet were freely available.
After 2 hours, mice were sacrificed using CO2 asphyxiation and an incision in the skin from the abdomen to neck was immediately made to expose the lungs and trachea. A small cut in the upper trachea was then introduced for insertion of a blunted, 22-gauge needle, and a nylon string was tied around the trachea to seal the trachea around the needle. The trachea (containing the inserted needle), lungs and heart were then removed en masse by carefully cutting the connective tissue beneath the lungs, and the bronchus of left lung was clipped with a Dieffenbach vessel clip. The right lung was injected with PBS and aspirated 3 times using a 1 ml syringe, and the recovered lavage fluid was saved on ice.
Bronchoalveolar lavage fluid (BALF) was then analyzed to determine how the targeted TLR7 agonist works. BALF samples were centrifuged at 1500 rpm for 5 min at 4° C., and the supernatant was aliquoted and stored at −80° C., for cytokine/chemokine analyses. Cell pellets were resuspended and cultured in pre-warmed RPMI 1640 medium for 2 hours and then washed 3x with pre-warmed PBS prior to harvesting for qPCR assay. The right lung was then tied with a nylon string and used for subsequent analysis of hydroxyproline content. The left lung was inflated with 1 ml PBS using the inserted syringe and transferred to 10% formalin solution for subsequent histological analyses.
(§1) CCL18 and IL-1β were quantified in induced THP-1 cell supernatants using a human DuoSet ELISA Development System (R&D Systems Europe, Abingdon, UK: #DY394-05) and an IL-1 beta Human ELISA Kit (Thermo Fisher Scientific, Waltham, MA; #BMS224-2) as described by manufactures. BALF samples were analyzed for mouse IFN-γ using ELISA MAX™ Deluxe (Biolegend, San Diego, CA; #430804).

[5] = test system: M2-induced THP-1 macrophages; experiment: Secreted CCL18 and IL-1β in THP-1 supernatants by ELISA; assay type: cell-based, human
Method: FIGS. 6A-6D show graphical data representative of various marker levels measured from M2-induced THP-1 macrophages treated with different concentrations of drugs for 48 hours (FIGS. 6A and 6B) or for 2 hours, then displaced with fresh medium and cultured for the remaining 46 hours (FIGS. 6C and 6D). In both cases, cell supernatants were collected and secreted CCL18 protein and IL-1β was detected by ELISA.
Further, to ensure that the above mRNA analyses accurately reflected the levels of anti-inflammatory cytokines produced by IL-4, IL-6 plus IL-13 stimulated THP-1 cells, the concentrations of CCL18 and IL-1β polypeptides in the THP-1 supernatants were quantitated by ELISA assay.
as §1
Additionally, cell supernatants were collected and secreted CCL18 protein was detected by ELISA.

[6] = 2 hours with drug, then drug-free medium
[7] = dosing every other day from day 10, BALF day 21
[8] = continuous incubation 48 hours, ELISA

CCCCc1nc2c(N)nc3ccccc3c2n1CC(C)(C)OC(=O)OCCSSCC(NC(=O)CCC(NC(=O)c1ccc(NCc2cnc3nc(N)[nH]c(=O)c3n2)cc1)C(=O)O)C(=O)O (stereo not shown) [Compound 1B]
anti-inflammatory/M2-type markers (CCL18, CD206, IL-1β, PDGFβ mRNA) ([1]; 2 hours incubation, harvested at once or after further 46 hours): downregulated anti-inflammatory/M2-type markers of macrophages more than Compound 1A | TNFα induction [1, 6]: dramatically improved | potency in reprogramming [1, 6]: superior potency relative to Compound 1A | M2 to M1 marker changes, magnitude of impact [2]: somewhat reduced | systemic cytokine release (plasma IL-6, IFNα, TNFα) ([3]; 10 nmol tail vein): does not | inflammatory cytokine release, dose comparison ([3]; plasma at 1 or 1.5 hours, varied dose): stimulates less inflammatory cytokine release than half the dose of Compound 1A | total number of BALF cells ([4]; different doses of Compound 1B): decreased in a dose-dependent manner | Arg1 (qPCR, lavage macrophages) [4, 7]: suppressed | CD86 transcripts (qPCR) [4, 7]: elevated | IFN-γ concentration (ELISA of lavage fluid) [4, 7]: elevated | IRAK-4 [4, 7]: upregulation | MMP9 (qPCR, lavage macrophages) [4, 7]: suppressed | TIMP 3 (qPCR, lavage macrophages) [4, 7]: suppressed | secreted CCL18 polypeptide [5, 8]: reductions | secreted IL-1β polypeptide [5, 8]: reductions | reduction of secreted CCL18 and IL-1β, comparison of 1B with 1A ([5]; drug exposure limited to 2 hours, then 46 hours fresh medium): superior
